Measurements as given in US20120046357A1, “Benzamide and Napthamide Derivatives Inhibiting Nuclear Factor-Kappa (B) - (NK-kB)” (Profectus Biosciences, Inc., priority 2009, published 2012).
Where a name gives a salt, the structure may show the parent alone.

Columns and labels:
NF-κB [1] = assay: 293/NFkB-luc reporter cell assay (TNF-α induced luciferase expression); assay type: cell-based; conditions: 293 cells, pNF-κB-luc reporter, 2 h pretreatment, 20 ng/ml TNF-α 18 h
Description: (§1) Two reporter cell assays were used to determine the ability of the compound of Example 10 to inhibit NF-κB driven transcription. The first assay was a 293-cell based assay with a stably integrated pNF-κB-luc reporter plasmid containing 3 NF-κB promoter elements. The second assay was a 293-cell based assay with a stably integrated pTRH1-NF-κB-dscGFP reporter containing 4 NF-κB promoter elements. Cells were treated with 0, 0.2, 1, 10, 20 and 40 μM of the compound of Example 10 for 2 hours then were induced with 20 ng/ml TNF-α for 18 hours. Following the induction, luminescence or fluorescence was quantified using a Beckman-Coulter 2300 plate reader. […] These values represent the median value generated from three independent experiments. As a control, 0.5% DMSO treated and untreated cells were compared to verify that the compound of Example 10 had no effect on the expression of luciferase or in the readout of the assay. There was a slight decrease in the output from the assay in the DMSO treated population although it was not statistically significant. As a result of the controls, the decrease in activity in the drug treated samples was compared to the DMSO control sample.

NF-κB [2] = assay: NF-κB/293/GFP reporter cell assay (TNF-α induced GFP expression); assay type: cell-based; conditions: pTRH1-NF-κB-dscGFP reporter, 2 h pretreatment, 20 ng/ml TNF-α 18 h, read-out: NF-KB/293/GFP EC50
Description: as §1

p65 (RelA) = target: T1, p65 (RelA) (Homo sapiens, UniProt Q04206); assay: TransAM NF-κB family DNA binding ELISA, p65; assay type: biochemical; conditions: binding to NF-κB consensus oligonucleotide
T1 construct: purchased Active Motif
T1 sequence (Q04206 whole entry): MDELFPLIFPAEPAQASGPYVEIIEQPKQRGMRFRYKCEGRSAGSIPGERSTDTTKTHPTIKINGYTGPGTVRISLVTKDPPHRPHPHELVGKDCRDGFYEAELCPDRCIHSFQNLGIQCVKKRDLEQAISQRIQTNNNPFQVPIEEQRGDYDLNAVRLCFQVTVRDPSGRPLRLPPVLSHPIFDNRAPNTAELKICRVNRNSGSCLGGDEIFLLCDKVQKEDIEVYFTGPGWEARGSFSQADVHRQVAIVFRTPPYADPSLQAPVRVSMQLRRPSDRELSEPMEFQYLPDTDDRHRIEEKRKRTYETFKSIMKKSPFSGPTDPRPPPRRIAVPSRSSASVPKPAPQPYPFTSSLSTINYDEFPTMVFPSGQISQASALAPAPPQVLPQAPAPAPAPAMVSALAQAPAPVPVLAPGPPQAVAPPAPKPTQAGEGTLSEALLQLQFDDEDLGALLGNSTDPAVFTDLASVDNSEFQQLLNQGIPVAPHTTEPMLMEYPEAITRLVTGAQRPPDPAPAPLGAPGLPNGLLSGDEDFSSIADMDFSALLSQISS
Description: (§2) The binding activity of NF-κB heterodimer or homodimer subunits from activated nuclear extracts or purified recombinant NF-κB proteins exposed to the drug compounds was evaluated using the TransAM NF-κB Family binding ELISA (Active Motif). 3-5 μg of nuclear extracts from TNFα activated Hela or Raji cells (Active Motif) or 20 ng of purified recombinant proteins (p65 and p50 from Active Motif, p52 from Santa Cruz) were incubated for 1 hour at room temperature with 20 μL drug compounds diluted in Complete Lysis buffer without DTT. Treated samples were then transferred to 30 μL Complete Binding Buffer (with DTT) in microplate wells pre-coated with the NF-κB consensus oligonucleotide. […] The plate was incubated for 1 hour at room temperature with gentle shaking and then washed 3 times with 200 μL 1× Wash Buffer. NF-κB p65, p50, p52, RelB, or c-Rel subunits bound to the plate were detected with 100 μL of the primary antibody (diluted 1:1000 in 1× Antibody Buffer) specific for that subunit. The plate was incubated for 1 hour at room temperature and then washed 3 times with 200 μL 1× Wash Buffer. Next, 100 μL of a HRP conjugated goat anti-rabbit antibody (diluted 1:1,000 in 1× Antibody Buffer) was added to each well. The plate was incubated for 1 hour at room temperature and then washed 4 times with 200 μL 1× Wash Buffer. 100 μL of room temperature Developing Solution was added to each well. The reaction was allowed to develop for 2-10 minutes until a medium dark blue color developed (depending on the subunit activity in the lot of extract or lot of recombinant protein used) and then the reaction was stopped with 100 μL Stop Solution yielding a yellow color. Absorbance was recorded using a Becton-Dickinson DTX 880 Multimode Detector at 450 nm with a reference wavelength subtracted at 620 nm. FIGS. 2, 3 and 4 illustrate the effect of Example 10 on inhibiting RelA, RelB and c-Rel binding to NF-κB sites.

c-Rel = target: T2, c-Rel (Homo sapiens, UniProt Q04864); assay: TransAM NF-κB family DNA binding ELISA, c-Rel; assay type: biochemical; conditions: binding to NF-κB consensus oligonucleotide; cells without % sign
T2 sequence (Q04864 2-619 limits assumed): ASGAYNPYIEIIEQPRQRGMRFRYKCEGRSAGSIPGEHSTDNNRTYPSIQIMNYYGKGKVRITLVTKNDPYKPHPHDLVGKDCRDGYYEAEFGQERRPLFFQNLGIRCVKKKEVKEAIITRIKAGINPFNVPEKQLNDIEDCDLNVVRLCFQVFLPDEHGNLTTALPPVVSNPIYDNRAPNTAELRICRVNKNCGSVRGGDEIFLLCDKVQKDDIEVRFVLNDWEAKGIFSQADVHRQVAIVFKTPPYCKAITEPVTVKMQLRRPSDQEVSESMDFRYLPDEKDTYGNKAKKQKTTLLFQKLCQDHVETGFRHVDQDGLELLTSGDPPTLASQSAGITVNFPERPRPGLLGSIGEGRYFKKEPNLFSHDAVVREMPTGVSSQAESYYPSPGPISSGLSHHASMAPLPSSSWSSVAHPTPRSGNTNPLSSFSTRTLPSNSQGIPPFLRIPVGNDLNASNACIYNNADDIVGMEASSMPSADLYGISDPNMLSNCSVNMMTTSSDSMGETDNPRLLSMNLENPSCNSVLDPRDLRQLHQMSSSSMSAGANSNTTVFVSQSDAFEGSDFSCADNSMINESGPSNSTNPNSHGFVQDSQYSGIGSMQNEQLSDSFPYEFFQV
Description: as §2

RelB = target: T3, RelB (Homo sapiens, UniProt Q01201); assay: TransAM NF-κB family DNA binding ELISA, RelB; assay type: biochemical; conditions: binding to NF-κB consensus oligonucleotide; cells without % sign
T3 sequence (Q01201 1-579): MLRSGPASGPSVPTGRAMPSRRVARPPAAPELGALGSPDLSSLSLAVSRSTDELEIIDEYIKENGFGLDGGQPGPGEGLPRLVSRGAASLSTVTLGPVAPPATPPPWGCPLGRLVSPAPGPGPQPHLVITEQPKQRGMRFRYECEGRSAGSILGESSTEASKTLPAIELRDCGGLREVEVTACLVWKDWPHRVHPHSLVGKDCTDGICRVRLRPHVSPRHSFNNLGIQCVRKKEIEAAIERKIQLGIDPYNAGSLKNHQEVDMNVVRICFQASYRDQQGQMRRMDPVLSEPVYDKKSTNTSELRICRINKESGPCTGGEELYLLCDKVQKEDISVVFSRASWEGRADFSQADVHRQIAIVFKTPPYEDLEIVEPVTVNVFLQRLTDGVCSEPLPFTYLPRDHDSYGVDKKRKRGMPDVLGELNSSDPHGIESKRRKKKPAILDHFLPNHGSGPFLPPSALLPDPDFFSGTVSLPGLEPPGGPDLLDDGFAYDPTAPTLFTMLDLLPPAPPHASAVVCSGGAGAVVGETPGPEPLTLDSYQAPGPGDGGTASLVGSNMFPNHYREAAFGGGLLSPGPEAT
Description: as §2

[3] = Homo sapiens, HEK293, 293 cells

Row | EC50 (NF-κB [1]; 293/NFkB-luc) [µM] | EC50 (NF-κB [2]; [3]) [µM] | IC50 (p65 (RelA)) [µM] | IC50 (c-Rel) [µM] | IC50 (RelB) [µM] | EC50 (NF-κB [1]; trifluoroacetate) [µM] | EC50 (NF-κB [2]; 293 cells, trifluoroacetate) [µM] | SMILES
1 | 8 | 2.4 | 241 | 3.7 | 3.9 | – | – | O=C(NC1=CC(=O)C2OC2C1O)c1cc2cc(Br)ccc2cc1O (racemic) [Example 15, (±)-7-bromo-3-hydroxy-N-(2-hydroxy-5-oxo-7-oxabicyclo[4.1.0]hept-3-en-3-yl)-2-naphthamide]
2 | 8.7 | 2.6 | 1.5 | 8.1 | 2.1 | – | – | COc1c(C(=O)NC2=CC(=O)C3OC3C2O)ccc(F)c1F (racemic) [Example 16, (±)-3,4-difluoro-N-(2-hydroxy-5-oxo-7-oxabicyclo[4.1.0]hept-3-en-3-yl)-2-methoxybenzamide]
3 | 3.7 | 6.7 | 295 | 232 | 82 | – | – | Cc1ccc(C(C)C)c(C(=O)NC2=CC(=O)C3OC3C2O)c1O (racemic) [Example 17, (±)-2-hydroxy-N-(2-hydroxy-5-oxo-7-oxabicyclo[4.1.0]hept-3-en-3-yl)-6-isopropyl-3-methylbenzamide]
4 | – | – | 3 | 14 | 3.3 | 7.5 | 1.7 | CN(C)c1ccc(C(=O)NC2=CC(=O)C3OC3C2O)c(O)c1 (racemic) [Example 19, (±)-4-(dimethylamino)-2-hydroxy-N-(2-hydroxy-5-oxo-7-oxabicyclo[4.1.0]hept-3-en-3-yl)benzamide trifluoroacetate]
5 | 4.6 | 1.3 | 0.91 | 1.9 | 1 | – | – | COc1cc(N(C)C)ccc1C(=O)NC1=CC(=O)C2OC2C1O (racemic) [Example 20, (±)-4-(dimethylamino)-N-(2-hydroxy-5-oxo-7-oxabicyclo[4.1.0]hept-3-en-3-yl)-2-methoxybenzamide]
